# From the supplement of paper PMC8967900
# Experiments:
# Assay in all cases: selective drug sensitivity score (sDSS, relative to normal bone marrow) (sDSS (score)); higher = more potent and effective on the cell line relative to normal bone marrow cells
# Settings in all cases: 72 h
# [1] = tested on: CCRF-CEM
# [2] = tested on: DND-41
# [3] = tested on: TANOUE
# [4] = tested on: KARPAS-45
# [5] = tested on: TMD5
# [6] = tested on: ALL-PO
# [7] = tested on: PF-382
# [8] = tested on: MOLT-4
# [9] = tested on: KASUMI-10
# [10] = tested on: HPB-ALL
# [11] = tested on: P12-ICHIKAWA
# [12] = tested on: KASUMI-9
# [13] = tested on: KOPN-8
# [14] = tested on: MHH-CALL-4
# [15] = tested on: MN-60
# [16] = tested on: 380
# [17] = tested on: RCH-ACV
# [18] = tested on: COG-LL-332h
# [19] = tested on: COG-LL-394h
# [20] = tested on: CCRF-HSB2
# 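Further: ALL cell lines in 384-well plates, five doses spanning 10,000-fold, each plate scaled between vehicle and 100 µmol/L benzalkonium chloride controls, sDSS an adapted area-under-curve metric.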
SMILES,selective drug sensitivity score [1],selective drug sensitivity score [2],selective drug sensitivity score [3],selective drug sensitivity score [4],selective drug sensitivity score [5],selective drug sensitivity score [6],selective drug sensitivity score [7],selective drug sensitivity score [8],selective drug sensitivity score [9],selective drug sensitivity score [10],selective drug sensitivity score [11],selective drug sensitivity score [12],selective drug sensitivity score [13],selective drug sensitivity score [14],selective drug sensitivity score [15],selective drug sensitivity score [16],selective drug sensitivity score [17],selective drug sensitivity score [18],selective drug sensitivity score [19],selective drug sensitivity score [20]
O=C(Nc1cc(Cl)cc2c1[nH]c1cnccc12)c1cccnc1 [PS-1145] (top concentration 25000 nM),-0.46,-0.46,-0.46,0.34,-0.46,-0.36,-0.46,-0.46,3.44,-0.46,-0.46,0.44,-0.46,-0.46,-0.46,-0.46,3.04,-0.46,-0.46,1.34
CC(=O)O[C@H]1C(=O)[C@@]2(C)[C@H]([C@H](OC(=O)c3ccccc3)[C@]3(O)C[C@H](OC(=O)[C@H](O)[C@@H](NC(=O)c4ccccc4)c4ccccc4)C(C)=C1C3(C)C)[C@]1(OC(C)=O)CO[C@@H]1C[C@@H]2O [Paclitaxel] (top concentration 1000 nM),18.3,2.04,-10.8,18.3,8.14,17.8,13.2,19.3,11.5,14.1,19.9,19.6,22.4,7.24,-0.36,19.9,21.8,20.5,6.84,18.8
CCCCCCCCCCCCCCCCCCOP(=O)([O-])OC1CC[N+](C)(C)CC1 [Perifosine] (top concentration 2500 nM),-0.16,-0.36,-0.36,-0.26,-0.36,0.94,-0.36,-0.36,-0.36,3.64,-0.36,-0.36,-0.26,-0.16,-0.36,-0.16,2.34,-0.36,-0.36,-0.36
CC[C@@H]1C(=O)OC[C@@H]1Cc1cncn1C [Pilocarpine] (top concentration 40000 nM),-1.56,4.34,-0.36,-1.56,-1.56,-1.56,-1.56,-1.26,-1.56,7.34,-1.56,-1.56,-1.56,-1.56,-1.56,-1.56,-1.56,-1.56,-1.56,-1.56
Nc1cccc2c1C(=O)N(C1CCC(=O)NC1=O)C2=O (stereo not given) [Pomalidomide] (top concentration 10000 nM),-0.26,4.24,-0.26,-0.26,-0.26,8.14,-0.26,-0.26,0.24,1.44,-0.26,6.84,-0.26,7.54,-0.26,-0.26,9.54,-0.26,0.04,-0.26
Cc1nc(=O)c2cc(CN(C)c3ccc(C(=O)N[C@@H](CCC(=O)O)C(=O)O)s3)ccc2[nH]1 [Raltitrexed] (top concentration 1000 nM),23.3,16.5,-0.58,9.52,-0.68,23,13.1,17.3,18.1,13.4,20.4,15.2,28.4,16.1,8.02,20.7,29.2,18.3,2.12,21.9
C=CC(=O)Nc1cccc(Nc2nc(Nc3ccc(N4CCN(C(C)=O)CC4)cc3OC)ncc2C(F)(F)F)c1 [Rociletinib] (top concentration 10000 nM),2.44,-0.56,-3.16,3.14,-2.06,10.3,0.64,2.04,6.94,1.74,1.94,5.14,1.14,2.14,-0.76,-0.16,2.54,1.84,5.24,1.24
CC(C)N(CCCNC(=O)Nc1ccc(C(C)(C)C)cc1)C[C@H]1O[C@@H](n2cc(Br)c3c(N)ncnc32)[C@H](O)[C@@H]1O [SGC0946] (top concentration 10000 nM),0.88,-1.02,-1.12,3.98,3.98,1.58,0.28,0.08,-0.12,1.18,0.08,0.28,-0.72,-1.12,-0.72,-1.12,-0.82,0.18,-0.82,0.68
CC[C@H](CO)Nc1nc(NCc2ccccc2)c2ncn(C(C)C)c2n1 [Seliciclib] (top concentration 10000 nM),2.06,9.26,-1.04,1.96,-1.04,-1.04,-1.04,-1.04,0.86,-0.64,-0.94,-0.44,4.26,0.16,-1.04,-1.04,2.16,2.16,-1.04,0.56
